Reference: patent US9238821B2, “Metabolic engineering for plant disease resistance” (The Samuel Roberts Noble Foundation, Inc., priority 2009, dated 2016)
Where “and” joins values, the source holds several entries; their conditions need not be identical. Identical values can stand only once. Entries after “also recorded” stand apart in the source; their conditions may differ.

Test system: P. omnivora
Experiment: Fungal inhibition assay against P. omnivora on PDA medium
Format: cell-based, Phymatotrichopsis omnivora
Details: for in vitro growth inhibitory activity against P. omnivora (in words): PDA medium, 0.1 mM and 0.5 mM; for Fungal growth score (arbitrary scale 0 to 5): 120 h, 0 = no fungal growth (best inhibition), 5 = best fungal growth (no inhibition), two replicate columns

Row | Compound | in vitro growth inhibitory activity against P. omnivora (in words) | Fungal growth score (arbitrary scale 0 to 5) (compound 0.1 mM in PDA medium) | Fungal growth score (arbitrary scale 0 to 5) (compound 0.5 mM in PDA medium) | in vitro growth inhibitory activity against P. omnivora (in words) (listed as 7, 4′-dihydroxyflavone)
1 | O=c1cc(-c2ccc(O)cc2)oc2cc(O)c(O)cc12 [6,7,4′-trihydoxyflavone] | not active | – | – | –
2 | O=c1cc(-c2ccc(O)cc2)oc2cc(O)ccc12 [7,4′-dihydroxyflavone] | strongly inhibited; also recorded: inhibited; also recorded: substantial in vitro growth inhibitory activity; also recorded: inhibit growth | 3 | 0 | substantial in vitro growth inhibitory activity
3 | O=c1cc(-c2ccc(O)cc2)oc2cc(O)cc(O)c12 [apigenin] | not in vitro active | 5 | 5 | –
4 | Oc1ccccc1O [catechol, reference compound] | – | 2 | 0 | –
5 | COc1ccc(-c2coc3cc(O)ccc3c2=O)cc1 [formononetin, reference compound] | not active | 4 | 4 | –
6 | O=C(/C=C/c1ccc(O)cc1)c1ccc(O)cc1O [isoliquiritigenin] | – | 4 | 4 | –
7 | O=C1C[C@@H](c2ccc(O)cc2)Oc2cc(O)ccc21 [liquiritigenin] | no inhibition activity | 5 | 5 | –
8 | O=C1C[C@@H](c2ccc(O)cc2)Oc2cc(O)cc(O)c21 [naringenin] | no inhibition activity | 4 and 5 | 3 and 5 | –
9 | medicarpin | strong inhibition; also recorded: inhibited; also recorded: substantial in vitro growth inhibitory activity; also recorded: inhibit growth | 2 and 1 | 1 and 0 | –
